Like-named read-outs stand apart in the source and are kept apart here. Where a SMILES comes first, the peptide text is derived from it. Bridges are numbered along the chain shown (N, C = ends). Roman numbers before positions name the chains, in order. Where no end group is shown, it is not given here.
Experiments:
C.albicans CCARM 14020 = type: cell-based, Candida albicans
Method: (§1) To determine the candidacidal activity of the peptides, we used Candida strains obtained from the Culture collection of antimicrobial resistant microbes at Seoul Women’s University in Korea. These included three Candida albicans (CCARM 14020, 14021, 14022), Candida guillermondi and Candida tropicalis. In addition, Candida albicans SC5413 was kindly provided by Dr Jeong-Yoon Kim at the Department of Microbiology & Molecular Biology, Chungnam University, Korea. Yeast were cultured overnight at 30°C in 10 ml of yeast extract-peptone-dextrose (YPD) broth (Qbiogene), then diluted in 10 ml of YPD broth to OD600 = 0.2 and grown for an additional 4 h with shaking at 30°C until OD600 = 0.8 in order to obtain mid-log phase cultures. The peptides (Hst 5, P113, HHP1, HHP2, PH1, PH2, di-PH1, di-PH2, WP1, di-WP2, di-15Hc and di-18Hc) in this study were synthesized by using standard solid-phase synthesis protocols and were purified by reversed-phase high-performance liquid chromatography at Anygen Inc. (Korea). FITC-labeled peptides (F-Hst5, F-P113, F-HHP1, F-di-PH2, F-di-WP2 and F-di-18Hc) were also synthesized by 6-aminohexnoic acid linker at Anygen (Korea) for confocal experiments.
(§2) The candidacidal activities of the peptides were tested by using standard microdilution plate assays, radial diffusion assays and broth dilution assay slightly modified from the procedure recommended by the National Committee for Clinical Laboratory Standards. For the candidacidal assays, C. albicans cells were grown in YPD medium and washed twice with 10 mM sodium phosphate buffer (NaPB; Na2HPO4, NaH2PO4, pH 7.4). The cells (1 x 10^6) were then mixed with different concentrations of peptides and incubated at 30°C with constant shaking for 60 min. For energy depletion experiments, cells were pre-incubated with 10 mM NaPB containing 5 mM NaN3 at 30°C for 60 min before the addition of peptides. The cell suspensions were diluted in 10 mM NaPB and aliquots of 500 cells were spread onto YPD agar plates then incubated for 24 h at 30°C to visualize the surviving colonies. Cell survival was expressed as a percentage of that for the control, and the loss of viability was calculated as [1 x (number of colonies from peptide-treated cells/number of colonies from control cells)] x 100. Candidacidal assays were performed in triplicate. For the radial diffusion assay, C. albicans cells were grown in YPD medium overnight and washed twice with 10 mM NaPB. Washed yeast-phase C. albicans cells (1 x 10^6 CFU) were trapped in thin underlay gels containing 9 mM sodium phosphate, 1 mM sodium citrate buffer, 1% (wt/vol) agarose (A6013; Sigma), and 0.3 mg of Sabouraud dextrose broth (Difco)/ml. After incubation at 37°C for 3 h, a 10 ml overlay gel of 1% agarose and 6% Sabouraud dextrose broth was poured on the underlay gel and then the plates were incubated overnight at 37°C. The clear-zone diameters were measured to the nearest 0.1 mm and graphed against the peptide concentration. Zone diameters were expressed in units (0.1 mm = 1 unit). For the broth dilution assay, the Candida strains were cultured in LYM broth for 18 h at 30°C. The numbers of yeasts were counted using a hemocytometer. Stock peptide solutions were prepared to a concentration of 320 μg/ml in distilled water, and were then serially diluted twofold, to 5 μg/ml. 100 μl aliquots of the diluted culture media containing candida cells (1 x 10^3) were dispensed into the wells of 96-well polypropylene microtiter plates (Costar 3879, Corning, NY), to which peptide solution (11 μl) was then added. In the experiments conducted to assess the candidacidal activity of peptides in the presence of salt, we used LYM supplemented with 150 mM NaCl for the culture medium, which was mixed with the peptide solution. The antifungal activities were evaluated after 24 h of incubation at 30°C by the observation of visible turbidity the wells. […]

C.albicans CCARM 14021 = type: cell-based, Candida albicans
Method: as §1, §2

C.albicans CCARM 14022 = type: cell-based, Candida albicans
Method: as §1, §2

C.albicans SC5413 = type: cell-based, Candida albicans
Method: as §1, §2

[1] = tested on: C. guilliermondi CCARM 14018; type: cell-based
Method: as §1, §2

C. tropicalis = assay: Broth dilution assay (MIC); type: cell-based, Candida tropicalis
Method: as §1
The candidacidal activities of the peptides were tested by using standard microdilution plate assays, radial diffusion assays and broth dilution assay slightly modified from the procedure recommended by the National Committee for Clinical Laboratory Standards. For the candidacidal assays, C. albicans cells were grown in YPD medium and washed twice with 10 mM sodium phosphate buffer (NaPB; Na2HPO4, NaH2PO4, pH 7.4). The cells (1 x 10^6) were then mixed with different concentrations of peptides and incubated at 30°C with constant shaking for 60 min. For energy depletion experiments, cells were pre-incubated with 10 mM NaPB containing 5 mM NaN3 at 30°C for 60 min before the addition of peptides. The cell suspensions were diluted in 10 mM NaPB and aliquots of 500 cells were spread onto YPD agar plates then incubated for 24 h at 30°C to visualize the surviving colonies. Cell survival was expressed as a percentage of that for the control, and the loss of viability was calculated as [1 x (number of colonies from peptide-treated cells/number of colonies from control cells)] x 100. Candidacidal assays were performed in triplicate. For the radial diffusion assay, C. albicans cells were grown in YPD medium overnight and washed twice with 10 mM NaPB. […] The clear-zone diameters were measured to the nearest 0.1 mm and graphed against the peptide concentration. […] The numbers of yeasts were counted using a hemocytometer. […] The antifungal activities were evaluated after 24 h of incubation at 30°C by the observation of visible turbidity the wells. […]

Candida cells = assay: ROS production (DCFH-DA fluorometric assay); type: cell-based, Candida albicans; conditions: 32 μg/ml peptide, 120 min, 10 μM DCFH-DA, ex 485 / em 530 nm
Method: The amount of ROS produced by Candida cells treated with peptides was measured by a fluorometric assay with DCFHDA as described earlier. Briefly, the cells were adjusted to an OD600 of 1 in 10 ml of NaPB and centrifuged at 5000 ×g for 10 min. The cell pellet was then resuspended in NaPB and treated with peptides alone or with ascorbic acid. After the addition of 10 μM 2`,7`dichlorofluorescein diacetate (DCFH-DA), the fluorescence intensity of the induced ROS production was recorded every 10 min at excitation and emission wavelengths of 485 nm and 530 nm, respectively, in a Perkin Elmer 2030 Reader (Victor X3).  Fig 7 The effect of peptides on ROS generation. Time-dependency of DCF fluorescence as a measure of ROS generation (A) and killing activity (B) were determined in Candida cells treated with peptides (32 μg/ml) or peptides + Ascorbic acid (200 μg/ml) by Perkin Elmer 2030 reader (VictorX 3) and colony count assay, respectively. The fluorescence obtained with the cells treated with 10 mM of H2O2 served as positive control and the cells without peptide served as negative control. The fluorescent intensity of DCF was recorded every 10 min for 120 min at excitation and emission wavelengths of 485 and 530 nm, respectively.

C. albicans strains = assay: Broth dilution assay (MIC), C. albicans strains; type: cell-based, Candida albicans; conditions: 150 mM NaCl
Method: as §1
as §2, with “100 μl aliquots of the diluted culture media containing candida cells (1 x 10^3) were dispensed into the wells of 96-well polypropylene microtiter plates (Costar 3879, Corning, NY), to which peptide solution (11 μl) was then added. In the experiments conducted to assess the candidacidal activity of peptides in the presence of salt, we used LYM supplemented with 150 mM NaCl for the culture medium, which was mixed with the peptide solution.” left out

[2] = CD spectra, secondary structure analysis; type: physicochemical; conditions: solvent Laminarin (20 mg/ml in buffer), 200 μg/ml peptide
[3] = tested on: C. guilliermondi CCARM 14019; type: cell-based
Method: as §1, §2

[4] = NaCl 150 mM, LYM supplemented with 150 mM NaCl, 24 h at 30°C

Row | Molecule | MICs (C.albicans CCARM 14020; CCARM 14020, 24 h) | MICs (C.albicans CCARM 14020; [4]) | MICs (C.albicans CCARM 14021; CCARM 14021, 24 h) | MICs (C.albicans CCARM 14021; [4]) | MICs (C.albicans CCARM 14022; CCARM 14022, 24 h) | MICs (C.albicans CCARM 14022; [4]) | MICs (C.albicans SC5413; [4]) | MICs (C.albicans SC5413; SC5413, 24 h) | MICs [1, 4] | killing activities against C. tropicalis in 150 mM NaCl salt (C. tropicalis; 150 mM NaCl) | increase in MIC against C. tropicalis at 150 mM salt (C. tropicalis; 150 mM NaCl versus no salt) | DCF fluorescence intensity (ROS generation) (Candida cells) | killing activities against C. albicans strains in 150 mM salt (C. albicans strains) | Secondary structure (%) Beta [2] | Secondary structure (%) Helix [2] | Secondary structure (%) Random [2] | Secondary structure (%) Turn [2] | MICs ([1]; CCARM 14018, 24 h) | MICs ([3]; CCARM 14019, 24 h) | MICs [3, 4]
1 | CC(C)C[C@H](NC(=O)CNC(=O)[C@H](Cc1c[nH]cn1)NC(=O)[C@H](Cc1c[nH]cn1)NC(=O)[C@H](CCCNC(=N)N)NC(=O)[C@H](CCCCN)NC(=O)[C@H](C)N)C(=O)N[C@@H](CC(N)=O)C(=O)N[C@@H](CSSC[C@H](NC(=O)[C@H](CC(N)=O)NC(=O)[C@H](CC(C)C)NC(=O)CNC(=O)[C@H](Cc1c[nH]cn1)NC(=O)[C@H](Cc1c[nH]cn1)NC(=O)[C@H](CCCNC(=N)N)NC(=O)[C@H](CCCCN)NC(=O)[C@H](C)N)C(=O)N[C@@H](C)C(=O)N[C@@H](CCCCN)C(=O)N[C@@H](Cc1ccccc1)C(=O)N[C@@H](Cc1c[nH]cn1)C(N)=O)C(=O)N[C@@H](C)C(=O)N[C@@H](CCCCN)C(=O)N[C@@H](Cc1ccccc1)C(=O)N[C@@H](Cc1c[nH]cn1)C(N)=O [di-PH2] (I: H-AKRHHGLNCAKFH-NH2 / II: H-AKRHHGLNCAKFH-NH2; disulfide I:9-II:9 (inferred); N-terminus assumed) | 1 to 2 µg/mL | 32< μg/ml | 1 to 2 µg/mL | 32< μg/ml | 2 to 4 µg/mL | 32< μg/ml | 32< μg/ml | 1 to 2 µg/mL | 32< μg/ml | retained | 2 fold | constant increase in fluorescence intensity | abolished | 0.0% | 20.5% | 61.1% | 18.4% | – | – | –
2 | AKRHHGYKRKFH-NH2 [P113] | 4 to 8 µg/mL | 32< μg/ml | 4 to 8 µg/mL | 32< μg/ml | 8 to 16 µg/mL | 32< μg/ml | 32< μg/ml | 4 to 8 µg/mL | 32< μg/ml | – | – | constant increase in fluorescence intensity | abolished | 0.2% | 2.8% | 72.2% | 24.7% | 0.5 to 1 µg/mL | 0.5 to 1 µg/mL | 32< μg/ml
3 | C[C@H](NC(=O)[C@H](Cc1c[nH]cn1)NC(=O)[C@H](CO)NC(=O)[C@@H](N)CC(=O)O)C(=O)N[C@@H](CCCCN)C(=O)N[C@@H](CCCNC(=N)N)C(=O)N[C@@H](Cc1c[nH]cn1)C(=O)N[C@@H](Cc1c[nH]cn1)C(=O)NCC(=O)N[C@@H](Cc1ccc(O)cc1)C(=O)N[C@@H](CCCCN)C(=O)N[C@@H](CCCNC(=N)N)C(=O)N[C@@H](CCCCN)C(=O)N[C@@H](Cc1ccccc1)C(=O)N[C@@H](Cc1c[nH]cn1)C(=O)N[C@@H](CCC(=O)O)C(=O)N[C@@H](CCCCN)C(=O)N[C@@H](Cc1c[nH]cn1)C(=O)N[C@@H](Cc1c[nH]cn1)C(=O)N[C@@H](CO)C(=O)N[C@@H](Cc1c[nH]cn1)C(=O)N[C@@H](CCCNC(=N)N)C(=O)NCC(=O)N[C@@H](Cc1ccc(O)cc1)C(=O)O [Hst 5, Histatin 5] | 8 to 16 µg/mL | 32< μg/ml | 4 to 8 µg/mL | 32< μg/ml | 8 to 16 µg/mL | 32< μg/ml | 32< μg/ml | 8 to 16 µg/mL | 32< μg/ml | – | – | constant increase in fluorescence intensity | abolished | 21.7% | 0.0% | 62% | 16.3% | 1 to 2 µg/mL | 2 to 4 µg/mL | 32< μg/ml
